In US8124793B2, “Derivatives of ethylene methanedisulfonate as cancer chemotherapeutic agents” (priority 2007, dated 2012):

Columns and labels:
Type in all cases: cell-based
SNB-75 = experiment: NCI screen, growth of human tumor cells: CNS Cancer SNB-75
Summary of the method: (§1)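 NCI screening: compound applied to tumor cell lines at a given molar concentration, growth measured as percent. Minimum 60 data points/compound; cancer type noted.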

HOP-62 = experiment: NCI screen, growth of human tumor cells: Non-Small Cell Lung HOP-62
Summary of the method: as §1

IGROVI = experiment: NCI screen, growth of human tumor cells: Ovarian Cancer IGROVI; details: IGROVI
Summary of the method: as §1

OVCAR-5 = experiment: NCI screen, growth of human tumor cells: Ovarian Cancer OVCAR-5
Summary of the method: as §1

NCI-H322M = experiment: NCI screen, growth of human tumor cells: Non-Small Cell Lung NCI-H322M; details: NCI-H322M, 10^−4 molar
Summary of the method: as §1

RPMI-8226 = experiment: NCI screen, growth of human tumor cells: Leukemia RPMI-8226
Summary of the method: as §1

UACC-257 = experiment: NCI screen, growth of human tumor cells: Melanoma UACC-257; details: UACC-257, 10^−4 molar
Summary of the method: as §1

OVCAR-8 = experiment: NCI screen, growth of human tumor cells: Ovarian Cancer OVCAR-8; details: OVCAR-8, 10^−4 molar
Summary of the method: as §1

SNB-19 = experiment: NCI screen, growth of human tumor cells: CNS Cancer SNB-19
Summary of the method: as §1

SF-268 = experiment: NCI screen, growth of human tumor cells: CNS Cancer SF-268
Summary of the method: as §1

TK-10 = experiment: NCI screen, growth of human tumor cells: Renal Cancer TK-10
Summary of the method: as §1

MDA-MB-435 = experiment: NCI screen, growth of human tumor cells: Breast Cancer MDA-MB-435
Summary of the method: as §1

OVCAR-3 = experiment: NCI screen, growth of human tumor cells: Ovarian Cancer OVCAR-3; details: OVCAR-3, 10^−4 molar
Summary of the method: as §1

CCRF-CEM = experiment: NCI screen, growth of human tumor cells: Leukemia CCRF-CEM; details: CCRF-CEM
Summary of the method: as §1

human cancer cells = experiment: NCI screen summary over the cancers tested (negative growth of human cancer cells); details: cancers with negative growth / cancers tested
Experimental: In the NCI screening process, each compound was tested and described by a minimum of 60 data points. The test data include, but are not limited to the type of cancer, the molar concentration used in the screen, and the percent growth of the cancer. In some cases, NMR and elemental analysis were used for structural assignment.
The derivatives in the tables are grouped using the same category as in the tables 1-6.

MOLT-4 = experiment: NCI screen, growth of human tumor cells: Leukemia MOLT-4; details: MOLT-4 (Leukemia), 10^−4 molar
Summary of the method: as §1

SN12C = experiment: NCI screen, growth of human tumor cells: Renal Cancer SN12C; details: SN12C, 10^−4 molar
Summary of the method: as §1

OVCAR-4 = experiment: NCI screen, growth of human tumor cells: Ovarian Cancer OVCAR-4; details: OVCAR-4, 10^−4 molar
Summary of the method: as §1

NCI-H23 = experiment: NCI screen, growth of human tumor cells: Non-Small Cell Lung NCI-H23
Summary of the method: as §1

NCI-H522 = experiment: NCI screen, growth of human tumor cells: Non-Small Cell Lung NCI-H522
Summary of the method: as §1

MALME-3M = experiment: NCI screen, growth of human tumor cells: Melanoma MALME-3M; details: MALME-3M
Summary of the method: as §1

DU-145 = experiment: NCI screen, growth of human tumor cells: Prostate Cancer DU-145; details: DV-145, 10^−4 molar
Summary of the method: as §1

SK-MEL-28 = experiment: NCI screen, growth of human tumor cells: Melanoma SK-MEL-28
Summary of the method: as §1

SK-MEL-2 = experiment: NCI screen, growth of human tumor cells: Melanoma SK-MEL-2
Summary of the method: as §1

SF-295 = experiment: NCI screen, growth of human tumor cells: CNS Cancer SF-295
Summary of the method: as §1

UACC-62 = experiment: NCI screen, growth of human tumor cells: Melanoma UACC-62
Summary of the method: as §1

SK-MEL-5 = experiment: NCI screen, growth of human tumor cells: Melanoma SK-MEL-5
Summary of the method: as §1

BT-549 = experiment: NCI screen, growth of human tumor cells: Breast Cancer BT-549; details: BT-549, 10^−4 molar
Summary of the method: as §1

HOP-92 = experiment: NCI screen, growth of human tumor cells: Non-Small Cell Lung HOP-92
Summary of the method: as §1

786-0 = experiment: NCI screen, growth of human tumor cells: Renal Cancer 786-0
Summary of the method: as §1

SR = experiment: NCI screen, growth of human tumor cells: Leukemia SR; details: SR
Summary of the method: as §1

MCF7/ADR-RES = experiment: NCI screen, growth of human tumor cells: Breast Cancer MCF7/ADR-RES; details: MCF7/ADR-RES (Breast Cancer), 10^−4 molar
Summary of the method: as §1

SF-539 = experiment: NCI screen, growth of human tumor cells: CNS Cancer SF-539
Summary of the method: as §1

CAKI-1 = experiment: NCI screen, growth of human tumor cells: Renal Cancer CAKI-1; details: CAKI-1 (Renal Cancer), 10^−4 molar
Summary of the method: as §1

K562 = experiment: NCI screen, growth of human tumor cells: Leukemia K562; details: K562, 10^−4 molar
Summary of the method: as §1

KM12 = experiment: NCI screen, growth of human tumor cells: Colon Cancer KM12; details: KM12, 10^−4 molar
Summary of the method: as §1

COLO205 = experiment: NCI screen, growth of human tumor cells: Colon Cancer COLO205
Summary of the method: as §1

## CC1=C(CC2S(=O)(=O)OCCOS2(=O)=O)C(=O)c2ccccc2C1=O [NSC 693874, ethylene (3-methyl-1,4-naphtho-2-quinoyl)-1,1-ethanedisulfonate]
SNB-75; SNB-75, 10^−4 molar
  % Growth: −96%
SNB-75; SNB-75, 10^−5 molar
  % Growth: −21%
SNB-75; SNB-75, 10^−6 molar
  % Growth: 6%
SNB-75; SNB-75, 10^−7 molar
  % Growth: 27%
SNB-75; SNB-75, 10^−8 molar
  % Growth: 6%
HOP-62; HOP-62, 10^−4 molar
  % Growth: −94%
IGROVI; 10^−4 molar
  % Growth: −100%
IGROVI; 10^−5 molar
  % Growth: 52%
OVCAR-5; OVCAR-5, 10^−4 molar
  % Growth: −98%
NCI-H322M
  % Growth: −100%
RPMI-8226; RPMI-8226, 10^−4 molar
  % Growth: −55%
UACC-257
  % Growth: −100%
OVCAR-8
  % Growth: −71%
SNB-19; SNB-19, 10^−4 molar
  % Growth: −92%
SF-268; SF-268, 10^−4 molar
  % Growth: 10%
SF-268; SF-268, 10^−5 molar
  % Growth: 49%
TK-10; TK-10, 10^−4 molar
  % Growth: −100%
MDA-MB-435; MDA-MB-435, 10^−4 molar
  % Growth: −92%
MDA-MB-435; MDA-MB-435, 10^−5 molar
  % Growth: 54%
OVCAR-3
  % Growth: −100%
CCRF-CEM; 10^−4 molar
  % Growth: −49%
CCRF-CEM; 10^−5 molar
  % Growth: 28%
Human cancer cells; 10^−4 M conc.
  Percentage of cancers showing negative growth cancers tested: 98%
Human cancer cells; 10^−5 M conc.
  Percentage of cancers showing negative growth cancers tested: 12%
MOLT-4
  percent of growth of human tumor cells: −51%
SN12C
  % Growth: −100%
OVCAR-4
  % Growth: −89%
NCI-H23; NCI-H23, 10^−4 molar
  % Growth: −89%
NCI-H23; NCI-H23, 10^−5 molar
  % Growth: 62%
NCI-H522; NCI-H522, 10^−4 molar
  % Growth: −69%
MALME-3M; 10^−4 molar
  % Growth: −78%
DU-145
  % Growth: −94%
SK-MEL-28; SK-MEL-28, 10^−4 molar
  % Growth: −83%
SK-MEL-2; SK-MEL-2, 10^−4 molar
  % Growth: −85%
SF-295; SF-295, 10^−4 molar
  % Growth: −100%
SF-295; SF-295, 10^−5 molar
  % Growth: 32%
UACC-62; UACC-62, 10^−4 molar
  % Growth: −92%
UACC-62; UACC-62, 10^−5 molar
  % Growth: 48%
SK-MEL-5; SK-MEL-5, 10^−4 molar
  % Growth: −100%
BT-549
  % Growth: −100%
HOP-92; HOP-92, 10^−4 molar
  % Growth: −88%
786-0; 786-0 (Renal Cancer), 10^−4 molar
  percent of growth of human tumor cells: −16%
SR; 10^−4 molar
  % Growth: −45%
SR; 10^−5 molar
  % Growth: −15%
SR; 10^−6 molar
  % Growth: 9%
SR; 10^−7 molar
  % Growth: 48%
SR; 10^−8 molar
  % Growth: 79%
MCF7/ADR-RES
  percent of growth of human tumor cells: −41%
SF-539; SF-539, 10^−4 molar
  % Growth: −100%
SF-539; SF-539, 10^−5 molar
  % Growth: 51%

## CC(=O)C1(CC2=C(C)C(=O)c3ccccc3C2=O)S(=O)(=O)OCCOS1(=O)=O [NSC 701690]
SNB-75; SNB-75, 10^−4 molar
  % Growth: −100%
SNB-75; SNB-75, 10^−5 molar
  % Growth: 45%
HOP-62; HOP-62, 10^−4 molar
  % Growth: −92%
HOP-62; HOP-62, 10^−5 molar
  % Growth: 52%
IGROVI; 10^−4 molar
  % Growth: −100%
IGROVI; 10^−5 molar
  % Growth: 40%
IGROVI; 10^−6 molar
  % Growth: 60%
OVCAR-5; OVCAR-5 (Ovarian Cancer), 10^−4 molar
  percent of growth of human tumor cells: −53%
NCI-H322M
  % Growth: −100%
CAKI-1
  percent of growth of human tumor cells: −53%
RPMI-8226; RPMI-8226 (Leukemia), 10^−4 molar
  percent of growth of human tumor cells: −18%
UACC-257
  % Growth: −83%
OVCAR-8
  % Growth: −100%
SNB-19; SNB-19, 10^−4 molar
  % Growth: −47%
SNB-19; SNB-19, 10^−5 molar
  % Growth: 53%
K562
  % Growth: −66%
SF-268; SF-268, 10^−4 molar
  % Growth: −100%
SF-268; SF-268, 10^−5 molar
  % Growth: 40%
SF-268; SF-268, 10^−6 molar
  % Growth: 65%
TK-10; TK-10 (Renal Cancer), 10^−4 molar
  percent of growth of human tumor cells: −8%
MDA-MB-435; MDA-MB-435, 10^−4 molar
  % Growth: −95%
OVCAR-3
  % Growth: −73%
CCRF-CEM; 10^−4 molar
  % Growth: −73%
CCRF-CEM; 10^−5 molar
  % Growth: 55%
Human cancer cells; 10^−4 M conc.
  Percentage of cancers showing negative growth cancers tested: 100%
Human cancer cells; 10^−5 M conc.
  Percentage of cancers showing negative growth cancers tested: 5%
Human cancer cells; 10^−6 M conc.
  Percentage of cancers showing negative growth cancers tested: 14%
KM12
  % Growth: −71%
SN12C
  % Growth: −100%
OVCAR-4
  % Growth: −100%
COLO205; COLO205, 10^−4 molar
  % Growth: −100%
COLO205; COLO205, 10^−5 molar
  % Growth: 60%
COLO205; COLO205, 10^−6 molar
  % Growth: 58%
NCI-H23; NCI-H23, 10^−4 molar
  % Growth: −91%
NCI-H522; NCI-H522, 10^−4 molar
  % Growth: −100%
NCI-H522; NCI-H522, 10^−5 molar
  % Growth: 35%
NCI-H522; NCI-H522, 10^−6 molar
  % Growth: 57%
NCI-H522; NCI-H522, 10^−7 molar
  % Growth: 77%
NCI-H522; NCI-H522, 10^−8 molar
  % Growth: 67%
MALME-3M; 10^−4 molar
  % Growth: −100%
MALME-3M; 10^−5 molar
  % Growth: 38%
MALME-3M; 10^−6 molar
  % Growth: 43%
SK-MEL-28; SK-MEL-28, 10^−4 molar
  % Growth: −100%
SK-MEL-28; SK-MEL-28, 10^−5 molar
  % Growth: 58%
SK-MEL-2; SK-MEL-2, 10^−4 molar
  % Growth: −73%
SK-MEL-2; SK-MEL-2, 10^−5 molar
  % Growth: 7%
SK-MEL-2; SK-MEL-2, 10^−6 molar
  % Growth: −2%
SK-MEL-2; SK-MEL-2, 10^−7 molar
  % Growth: −8%
SK-MEL-2; SK-MEL-2, 10^−8 molar
  % Growth: −3%
SF-295; SF-295, 10^−4 molar
  % Growth: −100%
UACC-62; UACC-62 (Melanoma), 10^−4 molar
  percent of growth of human tumor cells: −57%
SK-MEL-5; SK-MEL-5, 10^−4 molar
  % Growth: −100%
SK-MEL-5; SK-MEL-5, 10^−5 molar
  % Growth: 58%
BT-549
  % Growth: −100%
HOP-92; HOP-92, 10^−4 molar
  % Growth: −66%
HOP-92; HOP-92, 10^−5 molar
  % Growth: 23%
HOP-92; HOP-92, 10^−6 molar
  % Growth: 60%
786-0; 786-0, 10^−4 molar
  % Growth: −100%
786-0; 786-0, 10^−5 molar
  % Growth: 36%
SR; 10^−4 molar
  % Growth: −100%
SR; 10^−5 molar
  % Growth: −8%
SR; 10^−6 molar
  % Growth: 19%
MCF7/ADR-RES
  percent of growth of human tumor cells: −40%
SF-539; SF-539, 10^−4 molar
  % Growth: −100%
SF-539; SF-539, 10^−5 molar
  % Growth: 44%
